Columns and labels:
[1] = target: peripheral benzodiazepine receptor (PBR, TSPO) (Rattus norvegicus, UniProt P16257); assay: Displacement of [3H] PK11195 from TSPO (rat heart mitochondria, CEREP); details: methyl ester forms
[2] = target: T1, sEH (Homo sapiens, UniProt P34913); assay: Testing as sEH inhibitors (assay not specified); assay type: biochemical
T1 sequence (P34913 1-555): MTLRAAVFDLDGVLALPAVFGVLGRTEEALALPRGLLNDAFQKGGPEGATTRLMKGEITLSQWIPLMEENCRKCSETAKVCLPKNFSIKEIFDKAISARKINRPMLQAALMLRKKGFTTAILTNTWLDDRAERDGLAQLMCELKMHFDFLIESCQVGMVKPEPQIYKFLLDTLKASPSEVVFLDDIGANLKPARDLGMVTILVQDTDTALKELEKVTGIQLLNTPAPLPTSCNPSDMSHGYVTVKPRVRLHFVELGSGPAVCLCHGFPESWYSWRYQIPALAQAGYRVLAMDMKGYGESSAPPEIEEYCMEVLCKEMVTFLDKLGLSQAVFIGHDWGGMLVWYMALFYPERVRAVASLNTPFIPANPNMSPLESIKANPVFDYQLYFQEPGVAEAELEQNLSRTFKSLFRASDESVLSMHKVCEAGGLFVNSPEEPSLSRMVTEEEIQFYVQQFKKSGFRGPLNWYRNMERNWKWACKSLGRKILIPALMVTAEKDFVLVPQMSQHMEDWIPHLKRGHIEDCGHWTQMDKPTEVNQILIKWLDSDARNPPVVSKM
From the text: Any of a number of standard assays for determining epoxide hydrolase activity can be used to determine inhibition of sEH. For example, suitable assays are described in Gill, et al., Anal Biochem 131:273-282 (1983); and Borhan, et al., Analytical Biochemistry 231:188-200 (1995)). Suitable in vitro assays are described in Zeldin et al., J. Biol. Chem. 268:6402-6407 (1993). Suitable in vivo assays are described in Zeldin et al., Arch Biochem Biophys 330:87-96 (1996). Assays for epoxide hydrolase using both putative natural substrates and surrogate substrates have been reviewed (see, Hammock, et al. In: Methods in Enzymology, Volume III, Steroids and Isoprenoids, Part B, (Law, J. H. and H. C. Rilling, eds. 1985), Academic Press, Orlando, Fla., pp. 303-311 and Wixtrom et al., In: Biochemical Pharmacology and Toxicology, Vol. 1: Methodological Aspects of Drug Metabolizing Enzymes, (Zakim, D. and D. A. Vessey, eds. 1985), John Wiley & Sons, Inc., New York, pp. 1-93. Several spectral based assays exist based on the reactivity or tendency of the resulting diol product to hydrogen bond (see, e.g., Wixtrom, supra, and Hammock. Anal. Biochem. 174:291-299 (1985) and Dietze, et al. Anal. Biochem. 216:176-187 (1994)).

[3] = Metabolic stability and pharmacokinetics of sEH inhibitors (statements)
[4] = system: StARD1 mRNA; assay: StARD1 mRNA 30 min after intraspinal 8-Br cAMP, EETs, AEPU in non-inflamed rats; assay type: in vivo, rat; details: 8-Br cAMP 100 μg, EETs 5 μg, AEPU 1 μg
Method: To investigate the cooperation between cAMP and EETs in the spinal cord, a membrane permeable cAMP analogue, 8-Br cAMP (100 μg), was administered into the spinal cord by lumbar puncture (between L4-L5) and rapid (30 min.) expression of StARD1 mRNA in the spinal cord and the brain was quantified by qRT-PCR. In these experiments animals were maintained under deep anesthesia.

[5] = Brain, blood and plasma inhibitor levels, LC-ESI-MS/MS; details: AEPU dermal, TPAU systemic administration
[6] = system: plasma oxylipins (EETs, DHETs, PGE2); assay: Plasma oxylipin analysis in LPS treated rats; assay type: in vivo, rat; details: LPS treated rats, two hours
From the text: Plasma was collected by cardiac puncture under deep anesthesia. Rats were anesthetized by isoflurane overdose and decapitated. Whole brains were immediately excised and flash frozen. […] Dorsal roots were excluded.

[7] = system: rats; assay: Intraplantar carrageenan inflammatory pain model, intrathecal sEHI; assay type: in vivo, rat; details: intrathecal 0.1-3 μg
Method: The study was approved by UC Davis Animal Care and Use Committee. Male Sprague-Dawley rats weighing 250-350 g were obtained from Charles River Inc. Two models of inflammatory pain and one model of diabetic neuropathic pain were used to test the effects of sEHI. The main inflammatory pain model used involved intraplantar LPS (10 μg/animal) administration as described previously (Inceoglu B et al., Life Sci 79:2311-2319 (2006)). Briefly, following baseline thermal withdrawal latency and mechanical withdrawal threshold determination LPS (in saline) was administered into one hind paw and nociceptive thresholds were monitored over time. The other inflammatory pain model involved intraplantar carrageenan (1% in saline, 50 μl) administration and was only used when sEHI was administered into the spinal cord. Intrathecal catheters were implanted according to Yaksh and Rudy (Yaksh T L and Rudy T A, Physiol Behav 17(6):1031-1036 (1976)). Following baseline nociceptive response measurements carrageenan was administered into one hind paw and responses were monitored over time and after intraspinal sEHI administration. […] In experiments in which EETs, sEHI and cAMP analogue was administered intraspinally animals were maintained under deep anesthesia and therefore nociceptive thresholds were not determined.

[8] = system: StARD1 mRNA; assay: StARD1 mRNA in LPS inflamed rats, qRT-PCR; assay type: in vivo, rat
From the text: (§1) A purelink Micro to Midi total RNA purification kit (Invitrogen, CA) was used to extract RNA from whole spinal cord, adrenal gland and testis. For brain, the remaining caudal two thirds were sliced into two hemispheres from the midline and a coronal slice of 2 mm in thickness was taken for analysis. The RNA samples were quantified by spectrophotometry and converted to cDNA using a high capacity cDNA reverse transcription kit from Applied Biosystems (CA, USA). Taq-man probes for COX2 (Rn00568225_ml) StARD1 (Rn00580695_ml), ICER(Rn00569145_ml), Sst (Rn00561967_ml), sEH(Rn00576023_ml) genes were used according to manufacturer's instructions to quantify relative gene expression (Applied Biosystems). Experiments were performed in triplicate with GAPDH (glyceraldehyde 3-phosphate dehydrogenase message) serving as the endogenous control. Mean fold expression values from corresponding untreated animal tissues were used as calibrators.

[9] = system: rats; assay: Thermal withdrawal latency, intraplantar LPS inflammatory pain model and non-inflamed controls; assay type: in vivo, rat; details: for thermal withdrawal latency in the absence of inflammation: control rats, i.pl. saline
[10] = system: circulating testosterone and progesterone; assay: Circulating steroid hormone levels by RIA; assay type: in vivo, rat; details: rats
[11] = system: COX2 mRNA; assay: Spinal COX2 mRNA after intraplantar LPS, qRT-PCR; assay type: in vivo, rat; details: rats
From the text: as §1

[12] = system: StARD1 mRNA; assay: StARD1 expression after rolipram and TPAU, qRT-PCR; assay type: in vivo, rat; details: rats
From the text: Briefly, RNA from whole spinal cord, brain and adrenal gland samples were extracted using a purelink Micro to Midi total RNA purification kit (Invitrogen, CA). The RNA samples were quantified by spectrophotometry and converted to cDNA using a high capacity cDNA reverse transcription kit from Applied Biosystems (CA, USA). Taq-man probe for StARD1 (Rn00580695_ml) was used according to manufacturer's instructions to quantify relative gene expression (Applied Biosystems CA, USA). Experiments were performed in triplicate with glyceraldehyde 3-phosphate dehydrogenase gene serving as the endogenous control. Mean fold expression values from corresponding vehicle treated animal tissues were used as calibrators.
These findings encouraged us to investigate the expression of StARD1 message as a marker of steroidogenic activity. […] Adrenal StARD1 from the same animals was also monitored as a marker of peripheral steroidogenesis.

[13] = target: T2, mouse sEH (Mus musculus, UniProt P34914); assay: biochemical
T2 sequence (P34914 1-554): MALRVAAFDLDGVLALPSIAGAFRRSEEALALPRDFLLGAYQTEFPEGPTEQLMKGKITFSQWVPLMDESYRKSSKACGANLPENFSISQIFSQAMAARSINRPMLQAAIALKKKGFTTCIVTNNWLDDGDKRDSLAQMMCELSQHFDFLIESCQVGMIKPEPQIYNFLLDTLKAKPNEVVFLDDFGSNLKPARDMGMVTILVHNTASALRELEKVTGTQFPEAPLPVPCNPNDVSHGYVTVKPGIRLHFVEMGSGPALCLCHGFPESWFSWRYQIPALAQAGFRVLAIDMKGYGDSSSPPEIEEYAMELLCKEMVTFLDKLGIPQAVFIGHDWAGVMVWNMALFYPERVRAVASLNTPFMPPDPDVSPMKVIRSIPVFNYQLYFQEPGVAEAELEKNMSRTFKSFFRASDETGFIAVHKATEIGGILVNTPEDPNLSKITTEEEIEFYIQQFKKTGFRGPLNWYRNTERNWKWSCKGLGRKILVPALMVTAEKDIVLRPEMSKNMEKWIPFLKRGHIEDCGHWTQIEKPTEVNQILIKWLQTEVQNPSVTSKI

[14] = system: rats; assay: Open field / motor activity; assay type: in vivo, rat; details: rolipram 0.1 and TPAU 10 mg/kg

CCCCC/C=C\C/C=C\CC1OC1C/C=C\CCCC(=O)O (stereo not drawn) [8,9-EET]
competition with radioligand [3H] PK11195 at TSPO [1]: did not compete

CCCCCCCCCCCCNC(=O)NC12CC3CC(CC(C3)C1)C2 [ADU, N-Adamantyl-N′-dodecyl urea]
activity as inhibitor of sEH [2]: particularly high activity | metabolic stability [3]: metabolically stable

CCOCCOCCOCCCCCNC(=O)NC12CC3CC(CC(C3)C1)C2 [AEPU, Adamantan-1-yl-3-{5-[2-(2-ethoxyethoxy)ethoxy]pentyl}urea]
spinal StARD1 expression [4]: without effect | penetration into the brain [5]: efficiently penetrated into the brain | plasma DHET level [6]: decreased | plasma PGE2 level [6]: decreased | carrageenan induced mechanical allodynia [7]: dose dependent decrease | carrageenan induced thermal hyperalgesia [7]: dose dependent decrease | metabolism [3]: metabolized rapidly | adrenal gland StARD1 mRNA induced by LPS [8]: reduced | brain StARD1 mRNA expression [8]: two-fold increase | spinal StARD1 mRNA expression [8]: sustained | testis StARD1 mRNA induced by LPS [8]: not in testis | thermal withdrawal latency in the absence of inflammation [9]: no effect | LPS elicited thermal hyperalgesia (thermal withdrawal latency) ([9]; rats, i.pl. LPS 10 μg): briefly increased | circulating / plasma progesterone level [10]: decreased | plasma testosterone level ([10]; with or without LPS): did not alter | spinal COX2 message after LPS [11]: significantly suppressed

CC(=O)N1CCC(NC(=O)Nc2ccc(OC(F)(F)F)cc2)CC1 [TPAU]
penetration into the brain [5]: efficiently penetrated into the brain | decrease in adrenal gland StARD1 expression [12]: 30% | metabolic stability [3]: metabolically stable | oral availability and pharmacokinetics [3]: excellent oral availability and pharmacokinetics | IC50 [13]: 97 nM | open field activity / motor function [14]: did not affect motor function | thermal withdrawal latency in the absence of inflammation [9]: no effect | loss of motor activity ([9]; rats): No loss of motor activity

Source: patent US20110230504A1, “ALLEVIATING DISORDERS WITH COMBINING AGENTS THAT INCREASE EPOXYGENATED FATTY ACIDS AND AGENTS THAT INCREASE cAMP” (The Regents Of The University Of California Office Of …, priority 2008, published 2011)
